“And” between values parts separate entries of the source, which are not always exact repeats. Identical values can stand only once.
System: lupus-prone NZB/W F1 mice
Experiment: Efficacy study in lupus-prone NZB/W F1 mice (proteinuria, survival, kidney histopathology)
Format: in vivo
Settings: for proteinuria (urinary albumin/creatinine ratio), mean / Histological score (glomerular lesion), Mean: n = 6; for Histological score (glomerular lesion), individual mouse: 0–4 scale
Description: At the initiation of treatment, mice were randomly divided according to bodyweight and proteinuria level (urinary albumin/creatinine ratio over 300 mg g^−1) and were orally once or twice daily. […] During the treatment, nearly dead individuals were euthanized, then sera and kidneys were collected. In this case, the last known values for urinary protein was carried forward.
Urine protein was quantified by automatic analyzer (BioMajesty ZERO(JCA-ZS050), JEOL Ltd, Japan) with Mouse Urinary Albumin Assay Kit (S-type) (AKRAL-021S, Shibayagi Co.,Ltd., Japan). Urine creatinine levels were measured in the same samples. The urine albumin excretion rate is expressed as the ratio of albumin to creatinine. Time course of proteinuria were analyzed by Dunnett’s multiple-range test.
The both kidneys were fixed in 10% neutral-buffered formalin, embedded in paraffin, sectioned, stained with hematoxylin and eosin (HE) and periodic acid-Schiff (PAS), and examined by light microscopy. Glomerulonephritis was scored on a 0–4 scale, based on the intensity and extent of histopathological changes. A grade of 0 was given to kidney without glomerular lesions; a grade of 1 was given when there was minimal thickening of the mesangium; a grade of 2 was given when there was a noticeable increase in both mesangial and glomerular capillary cellularity; a grade of 3 was given when the preceding conditions were observed, along with superimposed inflammatory exudates and capsular adhesions; and a grade of 4 was given when the obliteration of the glomerular architecture included 70% of glomeruli. These classifications were used to grade 20 glomeruli within one area, and the mean glomerular histopathological score was calculated for each mouse. Data were analyzed by Tukey’s test.

[1] = 100 mg kg−1 po once or twice daily, four weeks

`CCOc1nc(C)c2nc(-c3cncc(F)c3)n(Cc3ccc(CN4C[C@@H]5C[C@H]4CN5C)cc3)c2n1` [Cpd-7] was tested, and the “proteinuria (urinary albumin/creatinine ratio), mean” value (100 mg kg-1 po B.I.D, 0 wk) was 1719.9, the “proteinuria (urinary albumin/creatinine ratio), mean” value (100 mg kg-1 po B.I.D, 1 wk) was 7204.5 and the “proteinuria (urinary albumin/creatinine ratio), mean” value (100 mg kg-1 po B.I.D, 2 wk) was 747.0. For the same molecule, the “proteinuria (urinary albumin/creatinine ratio), mean” value (100 mg kg-1 po B.I.D, 3 wk) was 150.9, the “proteinuria (urinary albumin/creatinine ratio), mean” value (100 mg kg-1 po B.I.D, 4 wk) was 121.0 and the “proteinuria (urinary albumin/creatinine ratio), mean” value (100 mg kg-1 po Q.D., 0 wk) was 1780.7. The “proteinuria (urinary albumin/creatinine ratio), mean” value (100 mg kg-1 po Q.D., 1 wk) was 10042.5, the “proteinuria (urinary albumin/creatinine ratio), mean” value (100 mg kg-1 po Q.D., 2 wk) was 9132.2 and the “proteinuria (urinary albumin/creatinine ratio), mean” value (100 mg kg-1 po Q.D., 3 wk) was 6691.2. For the same molecule, the “proteinuria (urinary albumin/creatinine ratio), mean” value (100 mg kg-1 po Q.D., 4 wk) was 3804.5, the “glomerular lesion scores vs vehicle” value (100 mg kg−1 once or twice daily) was “significantly reduced” and the death/survival [1] was “prevented death in all mice”. The proteinuria vs vehicle [1] was “significant decrease in proteinuria”, the “Histological score (glomerular lesion), individual mouse” value (B.I.D. 100 mg kg-1) was 0 and 1 and the Survival rate (B.I.D. 100 mg kg-1, day 0) was 100%. It also gave a Survival rate (B.I.D. 100 mg kg-1, day 1) of 100%, a Survival rate (B.I.D. 100 mg kg-1, day 2) of 100% and a Survival rate (B.I.D. 100 mg kg-1, day 3) of 100%. It also gave a Survival rate (B.I.D. 100 mg kg-1, day 4) of 100%, a Survival rate (B.I.D. 100 mg kg-1, day 5) of 100% and a Survival rate (B.I.D. 100 mg kg-1, day 6) of 100%. For the same molecule, the Survival rate (B.I.D. 100 mg kg-1, day 7) was 100%, the Survival rate (B.I.D. 100 mg kg-1, day 8) was 100% and the Survival rate (B.I.D. 100 mg kg-1, day 9) was 100%. It also gave a Survival rate (B.I.D. 100 mg kg-1, day 10) of 100%, a Survival rate (B.I.D. 100 mg kg-1, day 11) of 100% and a Survival rate (B.I.D. 100 mg kg-1, day 12) of 100%. It also gave a Survival rate (B.I.D. 100 mg kg-1, day 13) of 100%, a Survival rate (B.I.D. 100 mg kg-1, day 14) of 100% and a Survival rate (B.I.D. 100 mg kg-1, day 15) of 100%. For the same molecule, the Survival rate (B.I.D. 100 mg kg-1, day 16) was 100%, the Survival rate (B.I.D. 100 mg kg-1, day 17) was 100% and the Survival rate (B.I.D. 100 mg kg-1, day 18) was 100%. It also gave a Survival rate (B.I.D. 100 mg kg-1, day 19) of 100%, a Survival rate (B.I.D. 100 mg kg-1, day 20) of 100% and a Survival rate (B.I.D. 100 mg kg-1, day 21) of 100%. For the same molecule, the Survival rate (B.I.D. 100 mg kg-1, day 22) was 100%, the Survival rate (B.I.D. 100 mg kg-1, day 23) was 100% and the Survival rate (B.I.D. 100 mg kg-1, day 24) was 100%. It also gave a Survival rate (B.I.D. 100 mg kg-1, day 25) of 100%, a Survival rate (B.I.D. 100 mg kg-1, day 26) of 100% and a Survival rate (B.I.D. 100 mg kg-1, day 27) of 100%. For the same molecule, the Survival rate (B.I.D. 100 mg kg-1, day 28) was 100%, the “Histological score (glomerular lesion), Mean” value (B.I.D. 100 mg kg-1) was 0.3333 and the “Histological score (glomerular lesion), individual mouse” value (Q.D. 100 mg kg-1) was 0 and 2 and 1 and 3. For the same molecule, the Survival rate (Q.D. 100 mg kg-1, day 0) was 100%, the Survival rate (Q.D. 100 mg kg-1, day 1) was 100% and the Survival rate (Q.D. 100 mg kg-1, day 2) was 100%. The Survival rate (Q.D. 100 mg kg-1, day 3) was 100%, the Survival rate (Q.D. 100 mg kg-1, day 4) was 100% and the Survival rate (Q.D. 100 mg kg-1, day 5) was 100%. It also gave a Survival rate (Q.D. 100 mg kg-1, day 6) of 100%, a Survival rate (Q.D. 100 mg kg-1, day 7) of 100% and a Survival rate (Q.D. 100 mg kg-1, day 8) of 100%. The Survival rate (Q.D. 100 mg kg-1, day 9) was 100%, the Survival rate (Q.D. 100 mg kg-1, day 10) was 100% and the Survival rate (Q.D. 100 mg kg-1, day 11) was 100%. For the same molecule, the Survival rate (Q.D. 100 mg kg-1, day 12) was 100%, the Survival rate (Q.D. 100 mg kg-1, day 13) was 100% and the Survival rate (Q.D. 100 mg kg-1, day 14) was 100%. The Survival rate (Q.D. 100 mg kg-1, day 15) was 100%, the Survival rate (Q.D. 100 mg kg-1, day 16) was 100% and the Survival rate (Q.D. 100 mg kg-1, day 17) was 100%. It also gave a Survival rate (Q.D. 100 mg kg-1, day 18) of 100%, a Survival rate (Q.D. 100 mg kg-1, day 19) of 100% and a Survival rate (Q.D. 100 mg kg-1, day 20) of 100%. The Survival rate (Q.D. 100 mg kg-1, day 21) was 100%, the Survival rate (Q.D. 100 mg kg-1, day 22) was 100% and the Survival rate (Q.D. 100 mg kg-1, day 23) was 100%. The Survival rate (Q.D. 100 mg kg-1, day 24) was 100%, the Survival rate (Q.D. 100 mg kg-1, day 25) was 100% and the Survival rate (Q.D. 100 mg kg-1, day 26) was 100%. For the same molecule, the Survival rate (Q.D. 100 mg kg-1, day 27) was 100%, the Survival rate (Q.D. 100 mg kg-1, day 28) was 100% and the “Histological score (glomerular lesion), Mean” value (Q.D. 100 mg kg-1) was 1. For the same molecule, the “toxic signs in body weights or clinical signs” value (both treatment groups) was “no clear toxic signs”.
